Peptide text beside a SMILES is read from it. * marks the point of attachment. AFC = O=c1cc(C(F)(F)F)c2ccc(N*)cc2o1; Cbz = O=C(OCc1ccccc1)*
How the values were obtained:
Caspase-6 = target: T1, Caspase-6 (Homo sapiens, UniProt P55212); assay: Caspase-6 progress curve inhibition assay; settings: for k2 Caspase-6: second-order rate constant, Ac-DEVD-AMC substrate, Pipes buffer pH 7.2
T1 sequence (P55212 24-179 limits assumed): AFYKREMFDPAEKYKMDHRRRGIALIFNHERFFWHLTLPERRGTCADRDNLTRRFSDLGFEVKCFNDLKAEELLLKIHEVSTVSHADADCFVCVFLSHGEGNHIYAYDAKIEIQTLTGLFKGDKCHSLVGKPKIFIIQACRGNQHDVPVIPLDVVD
T1 sequence (P55212 194-293 limits assumed): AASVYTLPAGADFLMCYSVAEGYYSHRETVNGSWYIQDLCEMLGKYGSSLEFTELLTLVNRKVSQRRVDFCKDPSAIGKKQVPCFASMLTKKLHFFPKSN

Caspase-8 = Caspase-8 (Homo sapiens, UniProt Q14790); assay: Caspase-8 progress curve inhibition assay; settings: for k2 Caspase-8: second-order rate constant, Ac-DEVD-AMC substrate, Pipes buffer pH 7.2
Caspase-8, sequence (Q14790 217-374 limits assumed): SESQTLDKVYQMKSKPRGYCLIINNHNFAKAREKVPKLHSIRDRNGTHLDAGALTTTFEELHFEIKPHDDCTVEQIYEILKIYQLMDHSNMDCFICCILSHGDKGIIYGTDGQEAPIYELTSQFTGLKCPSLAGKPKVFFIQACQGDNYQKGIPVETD
Caspase-8, sequence (Q14790 385-479 limits assumed): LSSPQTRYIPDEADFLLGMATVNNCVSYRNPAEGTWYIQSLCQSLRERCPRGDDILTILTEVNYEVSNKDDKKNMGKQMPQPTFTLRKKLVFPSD

Caspase-7 = target: T2, Caspase-7 (Homo sapiens, UniProt P55210); assay: Caspase-7 progress curve inhibition assay; settings: for k2 Caspase-7: second-order rate constant, Ac-DEVD-AMC substrate, Pipes buffer pH 7.2
T2 sequence (P55210 24-198 limits assumed): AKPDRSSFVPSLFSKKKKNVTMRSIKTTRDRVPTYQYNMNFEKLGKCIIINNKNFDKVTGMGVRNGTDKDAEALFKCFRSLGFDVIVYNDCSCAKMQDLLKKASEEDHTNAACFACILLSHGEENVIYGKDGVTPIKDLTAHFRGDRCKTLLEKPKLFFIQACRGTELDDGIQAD
T2 sequence (P55210 207-303 limits assumed): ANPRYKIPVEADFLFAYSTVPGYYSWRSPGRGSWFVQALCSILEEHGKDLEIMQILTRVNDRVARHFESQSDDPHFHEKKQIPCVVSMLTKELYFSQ

Caspase-3 = target: T3, Caspase-3 (Homo sapiens, UniProt P42574); assay: Caspase-3 progress curve inhibition assay; settings: for k2 Caspase-3: second-order rate constant, Ac-DEVD-AMC substrate, Pipes buffer pH 7.2
T3 sequence (P42574 29-175 limits assumed): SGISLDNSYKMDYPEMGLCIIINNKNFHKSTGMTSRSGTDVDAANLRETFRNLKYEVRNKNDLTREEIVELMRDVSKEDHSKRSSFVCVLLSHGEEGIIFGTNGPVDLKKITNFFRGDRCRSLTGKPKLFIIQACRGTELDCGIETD
T3 sequence (P42574 176-277 limits assumed): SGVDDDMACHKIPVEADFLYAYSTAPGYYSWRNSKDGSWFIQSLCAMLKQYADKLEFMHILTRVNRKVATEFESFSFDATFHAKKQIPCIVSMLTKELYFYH

Caspase-10 = target: T4, Caspase-10 (Homo sapiens, UniProt Q92851); assay: Caspase-10 progress curve inhibition assay; settings: for k2 Caspase-10: second-order rate constant, Ac-DEVD-AMC substrate, Hepes/PEG buffer pH 7.0
T4 sequence (Q92851 220-415 limits assumed): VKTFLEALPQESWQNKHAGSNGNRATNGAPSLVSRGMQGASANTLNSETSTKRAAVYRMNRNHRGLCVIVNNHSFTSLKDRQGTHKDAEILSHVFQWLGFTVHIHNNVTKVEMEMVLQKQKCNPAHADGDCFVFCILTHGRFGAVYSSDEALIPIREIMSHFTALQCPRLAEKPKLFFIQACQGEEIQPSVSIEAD
T4 sequence (Q92851 416-521 limits assumed): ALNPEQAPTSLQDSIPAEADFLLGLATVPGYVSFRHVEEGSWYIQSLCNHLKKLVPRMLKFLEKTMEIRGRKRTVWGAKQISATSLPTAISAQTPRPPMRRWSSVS
Procedure: Caspase-2, -3, -6, -7, -8, -9 and -10. Caspases-2, -3, -6, -7, -8, -9 and -10 were expressed in E. coli and purified in Guy Salvesen's laboratory at the Burnham Institute, La Jolla, Calif., according to the methods known in the art. Inhibition rates were determined by the progress curve method known in the art. This method is suitable for measuring irreversible inhibition rates with fast inhibitors, where the inhibitor, the substrate and the enzyme are incubated together and the rate of substrate hydrolysis is measured continuously. The rate of substrate hydrolysis in the presence of the inhibitor was monitored for 20 minutes. The progress curve of inhibition, where the product formation approaches an asymptote is described in the equation ln([P∞]−[P])=ln[P∞]−A[I]t where [P] and [P∞] are the product concentrations at t and t=∞ respectively, A is the apparent rate constant in the presence of the substrate. The apparent rate constants were determined from the slopes of plots of ln ([P∞]−[P]) versus time (t) in seconds as previously described, where A=slope/[I].
(§1) For competitive and irreversible inhibition, the apparent rate constant is converted to the second order rate constant k2 by taking into consideration the effect of the substrate concentration on the apparent rate constant. The second order rate constant is described as in the equation: k2=A*(1+[S]/KM)
Assay buffer is a 1:1 mixture of buffer (200 mM Hepes, 0.2% (w/v) CHAPS, PEG 20% (w/v)) and 20 mM DTT solution in H2O at pH 7.0). The enzyme was pre-activated for 10 min at 25° C. in the assay buffer.

Caspase-2 = target: T5, Caspase-2 (Homo sapiens, UniProt P42575); assay: Caspase-2 progress curve inhibition assay; settings: for k2 Caspase-2: second-order rate constant, Cbz-VDVAD-AFC substrate, Pipes buffer pH 7.2
T5 sequence (P42575 170-333 limits assumed): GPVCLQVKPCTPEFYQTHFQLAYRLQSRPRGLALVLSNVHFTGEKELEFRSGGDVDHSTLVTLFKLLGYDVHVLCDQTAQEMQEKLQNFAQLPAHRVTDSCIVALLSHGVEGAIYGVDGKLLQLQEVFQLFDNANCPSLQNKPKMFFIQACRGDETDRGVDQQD
T5 sequence (P42575 348-452 limits assumed): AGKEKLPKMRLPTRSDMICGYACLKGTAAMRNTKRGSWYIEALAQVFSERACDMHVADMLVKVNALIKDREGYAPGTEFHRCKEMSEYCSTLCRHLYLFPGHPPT
Procedure: Inhibition rates were determined by the progress curve method known in the art. This method is suitable for measuring irreversible inhibition rates with fast inhibitors, where the inhibitor, the substrate and the enzyme are incubated together and the rate of substrate hydrolysis is measured continuously. The rate of substrate hydrolysis in the presence of the inhibitor was monitored for 20 minutes. The progress curve of inhibition, where the product formation approaches an asymptote is described in the equation ln([P∞]−[P])=ln[P∞]−A[I]t where [P] and [P∞] are the product concentrations at t and t=∞ respectively, A is the apparent rate constant in the presence of the substrate. The apparent rate constants were determined from the slopes of plots of ln ([P∞]−[P]) versus time (t) in seconds as previously described, where A=slope/[I].
as §1
The concentration of the caspase-3 stock solution was 2 nM in the assay buffer. Assay buffer is a 1:1 mixture of caspase buffer (40 mM Pipes, 200 mM NaCl, 0.2% (w/v) CHAPS, sucrose 20% (w/v)) and 20 mM DTT solution in H2O at pH 7.2. The concentration of the substrate stock solution was 2 mM in DMSO. The enzyme was pre-activated for 10 min at 37° C. in the assay buffer. […] 50 μL of 2 nM enzyme stock solution (final concentration: 1 nM) was added to the mixture after 1 min and reading started immediately for 20 min at 37° C. Inhibition experiments were repeated in duplicate and standard deviations determined.
The inhibitor stock solution concentrations varied from 5×10^−3 M to 1×10^−4 M in DMSO.

S. mansoni legumain = S. mansoni legumain (Schistosoma mansoni, UniProt P09841, N192C); assay: S. mansoni legumain (SmAE) inhibition assay; type: biochemical
S. mansoni legumain, sequence (P09841 32-291 N192C): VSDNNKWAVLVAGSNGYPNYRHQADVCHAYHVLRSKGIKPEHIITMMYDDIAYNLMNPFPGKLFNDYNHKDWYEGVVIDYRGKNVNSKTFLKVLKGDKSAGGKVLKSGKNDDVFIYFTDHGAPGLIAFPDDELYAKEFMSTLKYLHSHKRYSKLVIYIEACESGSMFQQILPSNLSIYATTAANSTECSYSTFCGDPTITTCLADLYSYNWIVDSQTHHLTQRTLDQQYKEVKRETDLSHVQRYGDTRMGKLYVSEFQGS
Procedure: Studies with the propenoyl hydrazides using the schistosome legumain […], (Schistosoma mansoni asparaginyl endopeptidase) were also performed. […] The actual active site enzyme concentration is unknown. The lyophilized enzyme ([…]) was reconstituted in 1.5 mL 0.5 M sodium acetate, pH 4.5 containing 4 mM DTT, and left to stand at 37° C. for 3-4 hours to allow for auto-activation of the zymogen. In a black 96-well microtiter plate, 50 μL of activated enzyme was added to an equal volume of 0.1 M citrate-phosphate buffer pH 6.8 containing 4 mM DTT. Inhibitor stock solutions (20 mM) were prepared in DMSO. Serial dilutions (using water) of inhibitor were added (as 1 μL aliquots) to yield concentrations of between 2 and 0.00002 μM inhibitor. […] After incubating various inhibitor concentrations with enzyme, 100 μL of the same buffer containing 20 μM substrate (Cbz-Ala-Ala-Asn-AMC) was added to the wells and the reaction monitored at room temperature with linear kinetics up to 20 minutes. Inhibitors are tested in duplicate. A plot of the RFU/min versus the inhibitor concentration [μM] permitted calculation of an IC50 value and estimation of the kobs/[I].

Compound: CC(C)[C@H](NC(=O)[C@H](CCC(=O)O)NC(=O)[C@H](CC(=O)O)NC(=O)OCc1ccccc1)C(=O)NN(CC(=O)O)C(=O)/C=C/C(=O)OCc1ccccc1 (relative stereo) [Cbz-Asp-Glu-Val-AAsp-CH═CH—COOCH2Ph, N^1-trans-(3-Benzyloxycarbonylpropenoyl)-N^2—(N-benzyloxycarbonylaspartylglutamylvalyl)-N^1-carboxymethylhydrazine]
- k2 Caspase-6 (Caspase-6): 8,470 M^−1s^−1
- k2 Caspase-8 (Caspase-8): 121,000 M^−1s^−1
- k2 Caspase-7 (Caspase-7): 114,000 M^−1s^−1
- k2 Caspase-3 (Caspase-3): 1,700,000 M^−1s^−1
- k2 Caspase-10 (Caspase-10): 28,300 M^−1s^−1

Compound: CCOC(=O)/C=C\C(=O)N(CC(=O)O)NC(=O)[C@@H](NC(=O)[C@H](CCC(=O)O)NC(=O)[C@H](CC(=O)O)NC(=O)OCc1ccccc1)C(C)C (relative stereo) [Cbz-Asp-Glu-Val-AAsp-CH═CH—COOEt (cis), N^2—(N-Benzyloxycarbonylaspartylglutamylvalyl)-N^1-carboxylmethyl-N^1-cis-(3-ethoxycarbonylpropenoyl)hydrazine]
- k2 Caspase-6 (Caspase-6): 11,000 M^−1s^−1
- k2 Caspase-8 (Caspase-8): 181,000 M^−1s^−1
- k2 Caspase-2 (Caspase-2): 26,200 ± ^ M^−1s^−1
- k2 Caspase-7 (Caspase-7): 139,000 M^−1s^−1
- k2 Caspase-3 (Caspase-3): 1,060,000 M^−1s^−1
- k2 Caspase-10 (Caspase-10): 13,500 M^−1s^−1

Compound: CC(C)[C@H](NC(=O)[C@H](CCC(=O)O)NC(=O)[C@H](CC(=O)O)NC(=O)OCc1ccccc1)C(=O)NN(CC(=O)O)C(=O)/C=C/C(=O)c1ccccc1 (relative stereo) [Cbz-Asp-Glu-Val-AAsp-CH═CH—COPh, N^2—(N-Benzyloxycarbonylaspartylglutamylvalyl)-N^1-trans-(3-benzoylpropenoyl)-N^1-carboxymethylhydrazine]
- k2 Caspase-6 (Caspase-6): 1,800 M^−1s^−1
- k2 Caspase-8 (Caspase-8): 9,720 M^−1s^−1
- k2 Caspase-2 (Caspase-2): 165 M⁻¹ s⁻¹
- k2 Caspase-7 (Caspase-7): 10,800 M^−1s^−1
- k2 Caspase-3 (Caspase-3): 122,000 M^−1s^−1
- k2 Caspase-10 (Caspase-10): 930 M⁻¹ s⁻¹

Compound: CCOC(=O)/C=C/C(=O)N(CC(=O)O)NC(=O)[C@@H](NC(=O)[C@H](CCC(=O)O)NC(=O)OCc1ccccc1)C(C)C (relative stereo) [Cbz-Glu-Val-AAsp-CH═CH—COOEt, N^2—(N-Benzyloxycarbonylglutamylvalyl)-N^1-carboxymethyl-N^1-trans-(3-ethoxycarbonylpropenoyl)hydrazine]
- k2 Caspase-6 (Caspase-6): 3,540 M^−1s^−1
- k2 Caspase-2 (Caspase-2): 90 M⁻¹ s⁻¹
- k2 Caspase-7 (Caspase-7): 52,400 M^−1s^−1
- k2 Caspase-3 (Caspase-3): 38,600 M^−1s^−1
- k2 Caspase-10 (Caspase-10): 8,940 M^−1s^−1

Compound: CC(=O)N[C@@H](CC(=O)O)C(=O)N[C@@H](CCC(=O)O)C(=O)N[C@H](C(=O)N[C@@H](CC(=O)O)C(=O)Nc1ccc2c(C)cc(=O)oc2c1)C(C)C [Ac-DEVD-AMC, reference compound]
- Km (Caspase-6; read-out: KM with caspase-6, substrate Ac-DEVD-AMC): 236 µM
- Km (Caspase-8; read-out: KM with caspase-8, substrate Ac-DEVD-AMC): 6.79 µM
- Km (Caspase-7; read-out: KM with caspase-7, substrate Ac-DEVD-AMC): 23 µM
- Km (Caspase-3; read-out: KM with caspase-3, substrate Ac-DEVD-AMC): 9.7 µM
- Km (Caspase-10; read-out: KM with caspase-10, substrate Ac-DEVD-AMC): 20.2 µM

Compound: CC(NC(=O)OCc1ccccc1)C(=O)NC(C)C(=O)NN(CC(N)=O)C(=O)C=CC(=O)N(C)C(Cc1ccccc1)C(=O)N(C)CCc1ccccc1 (stereo not drawn) [N^2—(N-Benzyloxycarbonylalanylalanyl)-N^1-carbamoylmethyl-N^1-trans-(3-methyl-(1-methylphenethylcarbamoyl)phenylethylcarbamoylpropenoyl)hydrazine]
- IC50 (S. mansoni legumain): 750 nM

Compound: C[C@H](NC(=O)OCc1ccccc1)C(=O)N[C@@H](C)C(=O)NN(CC(N)=O)C(=O)/C=C/C(=O)N(Cc1ccccc1)Cc1cccc2ccccc12 [N^2—(N-Benzyloxycarbonylalanylalanyl)-N^1-trans-(3-benzyl-1-naphthylmethylcarbamoylpropenoyl)-N^1-carbamoylmethylhydrazine]
- IC50 (S. mansoni legumain): 62 nM
- kinact/KI (S. mansoni legumain; read-out: kobs/[I]): 6180 M⁻¹ s⁻¹

Compound: CC(NC(=O)C(NC(=O)C(CC(=O)O)NC(=O)C(NC(=O)OCc1ccccc1)C(C)C)C(C)C)C(=O)NC(CC(=O)O)C(=O)Nc1ccc2c(C(F)(F)F)cc(=O)oc2c1 (stereo not shown) [Z-VDVAD-AFC, reference compound] (Cbz-VDVAD-{AFC}; configuration not given here)
- Km (Caspase-2; read-out: KM with caspase-2, substrate Z-VDVAD-AFC): 80.5 µM
